Assays:
RAW 264.7 cells [1] = test: Mannose receptor specific transfection of RAW 264.7 cells in presence and absence of mannan; assay type: cell-based, murine; conditions: DOPE as co-lipid; lipid:DNA ratio 8:1 to 1:1; 50 μg mannan; FIGS. 6-8
Procedure: (§1) Cells were seeded at a density of 25000 (for RAW 264.7) per well in a 96-well plate for 18-24 h before the transfection. 0.3 μg (0.9 nmol) of plasmid DNA was complexed with varying amounts of lipids (1 nmol-8 nmol) in serum free medium (total volume made up to 100 μL) for 30 minutes. The charge ratios were varied from 1:1 to 8:1 over these ranges of the lipids. Immediately prior to transfection, cells plated in the 96-well plate were washed with PBS (2×100 μL) followed by the addition of lipoplexes. After 4 h of incubation, the medium was replaced with fresh complete medium containing 10% FBS. The luciferase reporter gene activity was estimated after 24 h. The cells were washed twice with PBS (100 pt each) and lysed in 50 μL lysis buffer. Care was taken to ensure complete lysis. 10 μL Promega luciferase assay buffer was added to the 5 μL lysate in a polystyrene plate and the luciferase activity per well was estimated using a FLx800 microplate luminescence reader (Bio-Tek instruments, INC, UK). Protein concentration in each well was determined by the modified Lowry method (Lundqvist A, et al. J Immunother. 2002, 25, 445-454) and the luciferase activity was expressed as the relative light unit (RLU) per mg of the protein.
(§2) Each transfection experiment was repeated two times on two different days. The transfection values reported were average values from two replicate transfection plates assayed on the same day. When mannan was used, the cells were pretreated for 30 mins at 37° C., 5% CO2 with mannan (50 μg), and the transfection was carried out in its presence. After 4 h at 37° C., the medium was replaced with fresh complete medium without mannan and the transfection activity was evaluated after 24 h as described above.

[2] = system: mouse bone marrow derived dendritic cells; test: DC-transfection with pα5GFP lipoplexes, flow cytometric analysis of GFP expression; assay type: cell-based, C57BL/6J mice; conditions: mbmDCs; for efficacies in delivering genes to dendritic cells relative to mannosyl analog 3: flow cytometry (FIG. 11) and fluorescence microscopy (FIG. 12)
Procedure: Primary mbmDCs were isolated using a previously described procedure (Inaba K, et al. J Exp Med 1992; 176:1693-1702). Briefly, bone marrow collected from tibias and fibulas of male C57BL/6 mice was passed through a nylon mesh to remove bone and debris, and resuspended in complete DC medium (RPMI-1640 containing 10% FBS, 50 μM β-mercaptoethanol, 2 mM glutamine, 1% NEAA, 20 ng/mL GM-CSF and 10 ng/mL IL-4, 1% antibiotic solution). Cells were supplemented with fresh DC medium every two days. After 6 days, the aggregated cells were dislodged by gently pipetting RPMI over the adherent stroma. The dislodged cells were pulled together and centrifuged at 280 g for […] at room temperature. The supernatant was discarded. The pellets were first resuspended in complete DC medium at 1×10^6 cells/mL and finally placed in 100 mm cell culture petri dishes at 1×10^7 cells/dish in 10 mL medium per dish. After 24 h, the nonadherent cells were collected by gently swirling the dish and were used for transfection and flow cytometry experiments. Cultures were maintained in a humidified atmosphere with 5% CO2 at 37° C.
First, the transfection efficiency of the lipids 1, 2 & 3 were evaluated in mouse bone marrow derived dendritic cells. To this end, the immature dendritic cells were isolated from the bone marrow of C57BL/6J mice by culturing with GM-CSF and IL-4 following the protocol described above. […] The profiles of the DC markers were monitored by flow cytometry. […] After confirming the presence of these expected DC markers on the surface of the isolated DCs, the transfection efficiencies of the cationic amphiphiles 1, 2 & 3 were evaluated in mbmDCs. […] Lipoplexes containing 3 μg of plasmid DNA encoding green fluorescence protein (pα5GFP) and 8 nmol cationic amphiphiles 1, 2 & 3 were added to the cells and incubated for 4 h at 37° C. in serum free medium with 5% CO2. […] The transfection efficiencies of the cationic amphiphiles 1, 2 & 3 were measured by Flow cytometric analysis.

RAW 264.7 cells [3] = test: Reporter gene (luciferase) expression assay, lipoplex transfection of RAW 264.7 cells; assay type: cell-based, murine; conditions: for in vitro transfection efficiencies relative to control mannosylated lipid 3: DOPE as co-lipid, lipid:DNA charge ratios 2:1 to 8:1, FIG. 4; for transfection efficiencies with DOPC as co-lipid compared to DOPE as co-lipid: lipid:DNA charge ratio of 8:1, FIG. 5
Procedure: The liposomes were prepared by the conventional method. Briefly, cationic lipids and co-lipids (Cholesterol, DOPE, DOPC) at 2:1 molar ratios were dissolved in chloroform. The solvent was then evaporated under a thin stream of nitrogen gas, vacuum dried for 8 h and hydrated in deionised water overnight to give a final lipid concentration of 1 mM for in vitro experiments or 5 mM for in vivo experiments. The hydrated lipid film was first vortexed for 30 seconds and then sonicated until clarity using a Branson 450 sonifier at 100% duty cycle and 25 W output power. The resulting clear aqueous liposomes were used in preparing lipoplexes.
as §1, §2

[4] = Dendritic cell based genetic immunization (s.c. pre-transfected mbmDCs), anti β-gal antibody ELISA; assay type: in vivo, C57BL/6J mice; conditions: s.c. 5×10^5 pre-transfected mbmDCs twice with 7-day interval; sera two weeks after second immunization; Part A, FIG. 13
Procedure: The transfected mbmDCs were harvested by DC isolation protocol described above and washed with PBS (2×100 μL). The cells were resuspended in HBSS medium at 5×10^5 cells/100 μL. 6-8 weeks old female C57BL/6J mice (n=5, each weighing 20-22 g) were immunized (s.c.) with 100 μL of transfected mbmDCs (˜5×10^5 cells) twice with a 7-day interval. Two weeks after the second immunization, mice were sacrificed and sera & spleens were collected for immune response assays.
Anti-β-gal antibodies were measured using an enzyme linked immunosorbent (ELISA) assay as described earlier (McKeever, U. et al. Vaccine 2002; 20:1524-1531). Briefly, 96 well ELISA plates were coated with β-gal protein (0.3 μg per well) using a 5 μg/mL stock solution prepared in PBS. Plates were washed with PBS (3×200 μL) and blocked with 1% BSA in PBS at room temperature for 2 h. The plates were then washed with PBS containing 0.05% Tween-20 (3×200 μL) and incubated with mouse sera (100 μL) at room temperature for 2 h. The plates were again washed with PBS containing 0.05% Tween-20 (3×200 μL) and 100 μL of diluted (1:1000) anti-mouse antibody conjugated to horse radish peroxidase was added to each well. […] The plates were then incubated in dark with 100 μL of ABTS (Calbiochem, USA) per well at 25° C. for 10 min and the absorbance was measured at 405 nm by ELISA reader (Bio-Tek instruments Inc, UK).

NIH3T3 cells = test: Transfection of NIH3T3 cells (no mannose receptor) in presence and absence of mannan; assay type: cell-based, murine; conditions: DOPE as co-lipid, lipid:DNA ratio 8:1 to 1:1, 50 μg mannan, FIGS. 6-8
Procedure: as §1, §2

Substance	transfection efficiencies when cells were pretreated with mannan (RAW 264.7 cells [1])	efficacies in delivering genes to dendritic cells relative to mannosyl analog 3 [2]	in vitro transfection efficiencies relative to control mannosylated lipid 3 (RAW 264.7 cells [3])	transfection efficiencies with DOPC as co-lipid compared to DOPE as co-lipid (RAW 264.7 cells [3])	anti β-gal antibody responses relative to mannosyl analog 3 [4]	transfection efficiency when cells were pretreated with mannan (NIH3T3 cells)	DC transfection efficiency (GFP expression by FACS) ([2]; 3 μg pα5GFP plasmid, 8 nmol cationic amphiphile, FIG. 11) [%]
2-[(N,N-di-n-hexadecyl-N-methyl)amino]-ethylL-L-lysyl-quinate chloride [lipid 2]	significantly diminished	superior to those of their mannosyl analog 3	higher in vitro transfection efficiencies than their control mannosylated lipid 3	enhanced further	higher anti β-gal antibody responses	did not get affected	
2-[(N,N-di-n-hexadecyl-N-methyl)amino]-ethylL-L-lysyl-shikimate chloride [lipid 1]	significantly diminished	superior to those of their mannosyl analog 3	higher in vitro transfection efficiencies than their control mannosylated lipid 3	enhanced further	higher anti β-gal antibody responses	did not get affected	
2-[(N,N-di-n-hexadecyl-N-methyl)amino]-ethylL-L-lysyl-β-D-Mannoside chloride [lipid 3, reference compound]	significantly diminished			enhanced further		did not get affected	5

From patent US8703824B2, “Cationic amphiphiles with mannose-mimicking head-groups and a process for the preparation thereof” (Council of Scientific & Industrial Research, priority 2010, dated 2014)
